From patent US20030130287A1, “Piperidine and piperazine derivatives which function as 5-ht2a receptor antagonists” (priority 2000, published 2003)
pIC50: −log10 of the molar value. Counter-ions that a name gives are not always drawn.

Tests used:
5-HT2A receptors = biological target: T1, 5-HT2A receptors (Rattus norvegicus, UniProt P14842); assay: [3H]ketanserine displacement at 5-HT2A receptors (Example A1); assay type: binding; conditions: frontal rat cortex homogenate, 15 minutes at 37° C.
T1 construct: Frontal rat cortex is homogenized in ice-cold buffer; from tissue; host or cells: rat frontal cortex homogenate (membrane pellet)
T1 sequence (P14842 whole entry): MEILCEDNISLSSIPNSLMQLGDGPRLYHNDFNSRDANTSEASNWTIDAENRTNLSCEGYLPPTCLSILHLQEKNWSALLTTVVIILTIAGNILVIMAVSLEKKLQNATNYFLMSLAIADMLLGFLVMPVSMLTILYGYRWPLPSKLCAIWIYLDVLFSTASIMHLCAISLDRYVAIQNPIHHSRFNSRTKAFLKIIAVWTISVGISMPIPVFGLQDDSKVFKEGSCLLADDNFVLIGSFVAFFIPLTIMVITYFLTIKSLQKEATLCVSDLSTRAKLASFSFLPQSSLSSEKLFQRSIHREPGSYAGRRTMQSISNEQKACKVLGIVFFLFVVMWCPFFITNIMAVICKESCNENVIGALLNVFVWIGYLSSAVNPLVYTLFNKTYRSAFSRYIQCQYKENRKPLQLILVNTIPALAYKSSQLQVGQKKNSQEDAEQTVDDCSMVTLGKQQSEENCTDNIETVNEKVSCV
Experimental: For the in-vitro detection of affinity to 5-HT2A receptors, the following test (Example A1), for example, can be used. The 5-HT2A receptors are exposed both to [^3H]ketanserine (a substance which is known for its affinity to the receptor) and also to the test compound. The decrease in the affinity of [^3H]ketanserine to the receptor is an indication of the affinity of the test substance to the 5-HT2A receptor. The detection is carried out analogously to the description by J. E. Leysen et al., Molecular Pharmacology, 1982, 21: 301-314, or as also described, for example, in EP 0320983.
Preparation of a Suspension of 5-HT2A Receptors:
Frontal rat cortex is homogenized in ice-cold buffer. The homogenate is centrifuged for 10 minutes at 4° C. and 50,000 X. The pellet is re-suspended in 2.5 ml of ice-cold tris buffer, made up to 10 ml with additional buffer and centrifuged as described. The pellet is then re-suspended in buffer and diluted to give a homogenate comprising 60 mg of material/ml. 0.1 ml of the suspension, 100 μl of a 5 nM solution of [^3H]ketanserine and 100 μl of a solution of the test compound (concentration in the range from 10^−5 to 10^−10 mol per litre) are introduced into the incubation tubes and made up to 1 ml with buffer. The tubes are incubated for 15 minutes at 37° C. After the incubation has been terminated by dipping the tubes into an ice bath, the cooled suspension is filtered through a glass filter under reduced pressure. The filters are washed 3× with 5 ml of cold buffer and then transferred into scintillation tubes. The filters are analysed by liquid scintillation spectrometry in 8 ml of Triton-X scintillator liquid.

## O=S(=O)(c1ccc(F)cc1)N1CCN(CCc2ccc(F)cc2)CC1 [compound 3, 4-(4-Fluorophenylsulfonyl)-1-[2-(4-fluorophenyl)ethyl]piperazine]
5-HT2A receptors
  pIC50: 7.60

## O=S(=O)(c1ccc2c(c1)CCN2)N1CCN(CCc2ccc(F)cc2)CC1 [compound 7, 4-(2,3-Dihydro-1H-indole-5-sulfonyl)-1-[2-(4-fluorophenyl)ethyl]piperazine]
5-HT2A receptors
  pIC50: 7.89

## N#Cc1c[nH]c2ccc(S(=O)(=O)N3CCN(CCc4ccc(F)cc4)CC3)cc12 [compound 8, 4-(3-Cyano-1H-indole-5-sulfonyl)-1-[2-(4-fluorophenyl)ethyl]piperazine]
5-HT2A receptors
  pIC50: 8.80

## CC(=O)Nc1cccc2c(S(=O)(=O)N3CCN(CCc4ccc(F)cc4)CC3)cccc12 [compound 4, 4-(5-Acetamidonaphth-1-yl-sulfonyl)-1-[2-(4-fluorophenyl)ethyl]piperazine]
5-HT2A receptors
  pIC50: 8.13

## Fc1ccc(CCN2CCC(Sc3cccc(Cl)n3)CC2)cc1 (as salt: hydrochloride) [Example 2, 2-chloro-6-{1-[2-(4-fluorophenyl)ethyl]piperidin-4-ylsulfanyl}pyridine]
other
  melting point: 237 to 240 °C

## O=[N+]([O-])c1ccccc1S(=O)(=O)N1CCN(CCc2ccc(F)cc2)CC1 [compound 6, 4-(2-Nitrophenylsulfonyl)-1-[2-(4-fluorophenyl)ethyl]piperazine]
5-HT2A receptors
  pIC50: 8.04

## [O-][S+](c1cccc(Cl)n1)C1CCN(CCc2ccc(F)cc2)CC1 (stereo not shown) (as salt: hydrochloride) [Example 3, 2-chloro-6-{1-[2-(4-fluorophenyl)ethyl]piperidine-4-sulfinyl}pyridine]
other
  melting point: 208 °C

## O=S(=O)(c1cccc2nonc12)N1CCN(CCc2ccc(F)cc2)CC1 [compound 5, 4-(2,1,3-Benzoxadiazol-4-ylsulfonyl)-1-[2-(4-fluorophenyl)ethyl]piperazine]
5-HT2A receptors
  pIC50: 7.36

## O=S(=O)(c1cccc(Cl)n1)C1CCN(CCc2ccc(F)cc2)CC1 [compound 10, 2-Chloro-6-{1-[2-(4-fluorophenyl)ethyl]piperidin-4-sulfonyl}pyridine]
5-HT2A receptors
  pIC50: 9.22

## O=S(=O)(c1cccc2cccnc12)N1CCN(CCc2ccc(F)cc2)CC1 [compound 1, 4-(8-Quinolinesulfonyl)-1-[2-(4-fluorophenyl)ethyl]piperazine]
5-HT2A receptors
  pIC50: 8.89

## O=S(=O)(c1cccc2cccnc12)N1CCN(CCc2ccc(F)cc2)CC1 (as salt: hydrochloride) [compound 1, 4-(8-Quinolinesulfonyl)-1-[2-(4-fluorophenyl)ethyl]piperazine]
other
  melting point: 141 °C

## O=S(=O)(c1cccc2ccccc12)N1CCN(CCc2ccc(F)cc2)CC1 [compound 2, 4-(1-Naphthylsulfonyl)-1-[2-(4-fluorophenyl)ethyl]piperazine]
5-HT2A receptors
  pIC50: 8.09

## O=S(=O)(c1ccc(F)cc1)C1CCN(CCc2ccc(F)cc2)CC1 [compound 9, 4-(4-Fluorophenylsulfonyl)-1-(2-(4-fluorophenyl)ethyl]piperidine]
5-HT2A receptors
  pIC50: 8.68
